Earlier results as cited in publication PMC9316000, “Preclinical Drug Pharmacokinetic, Tissue Distribution and Excretion Profiles of the Novel Limonin Derivate HY-071085 as an Anti-Inflammatory and Analgesic Candidate in Rats and Beagle Dogs” (Pharmaceuticals, 2022).
Where two headings read alike, the source gives them in different places.

Columns and labels:
[1] = parameters: method as in PMID 16435568; settings: cited from earlier work
[2] = parameters: method as in earlier work; settings: Temp 25℃; cited from earlier work
[3] = parameters: method as in earlier work; settings: Temp 25℃, pH 7.0; cited from earlier work
[4] = parameters: method as in earlier work; settings: Temp 25℃; cited from earlier work; remark: listed apart in the source

In the case of CC1(C)O[C@H]2CC(=O)OC[C@]23[C@H]2CC[C@@]4(C)[C@H](c5ccoc5)OC(=O)[C@H]5O[C@]54[C@]2(C)C(=O)C[C@@H]13 [Limonin], the “exposure of female rats relative to male rats” value ([1]; intravenous administration) is listed as “three-fold higher”, the “exposure of female rats relative to male rats” value ([1]; oral administration) is listed as 50 fold and the Intrinsic solubility [2] is listed as 220 µg/mL. For the same compound, the LogD [3] was 0.47 and the logP [4] was 0.474.
